Measured values taken from patent publication US10016383B2, “Inhibitors of metallo-β-lactamase-enzymes” (McMaster University, priority 2013, dated 2018).
“Also recorded” adds a separate entry of the source.

Key:
ACE = biological target: T1, ACE (Oryctolagus cuniculus, UniProt P12822); experiment: Incubation of AM-A with metalloenzymes in Zn2+-depleted buffer; type: biochemical, rabbit; conditions: extended incubation, AM-A 0.5 mM
T1 construct: as well as ACE from rabbit lung; from tissue; host or cells: rabbit lung
T1 sequence (P12822 34-1310): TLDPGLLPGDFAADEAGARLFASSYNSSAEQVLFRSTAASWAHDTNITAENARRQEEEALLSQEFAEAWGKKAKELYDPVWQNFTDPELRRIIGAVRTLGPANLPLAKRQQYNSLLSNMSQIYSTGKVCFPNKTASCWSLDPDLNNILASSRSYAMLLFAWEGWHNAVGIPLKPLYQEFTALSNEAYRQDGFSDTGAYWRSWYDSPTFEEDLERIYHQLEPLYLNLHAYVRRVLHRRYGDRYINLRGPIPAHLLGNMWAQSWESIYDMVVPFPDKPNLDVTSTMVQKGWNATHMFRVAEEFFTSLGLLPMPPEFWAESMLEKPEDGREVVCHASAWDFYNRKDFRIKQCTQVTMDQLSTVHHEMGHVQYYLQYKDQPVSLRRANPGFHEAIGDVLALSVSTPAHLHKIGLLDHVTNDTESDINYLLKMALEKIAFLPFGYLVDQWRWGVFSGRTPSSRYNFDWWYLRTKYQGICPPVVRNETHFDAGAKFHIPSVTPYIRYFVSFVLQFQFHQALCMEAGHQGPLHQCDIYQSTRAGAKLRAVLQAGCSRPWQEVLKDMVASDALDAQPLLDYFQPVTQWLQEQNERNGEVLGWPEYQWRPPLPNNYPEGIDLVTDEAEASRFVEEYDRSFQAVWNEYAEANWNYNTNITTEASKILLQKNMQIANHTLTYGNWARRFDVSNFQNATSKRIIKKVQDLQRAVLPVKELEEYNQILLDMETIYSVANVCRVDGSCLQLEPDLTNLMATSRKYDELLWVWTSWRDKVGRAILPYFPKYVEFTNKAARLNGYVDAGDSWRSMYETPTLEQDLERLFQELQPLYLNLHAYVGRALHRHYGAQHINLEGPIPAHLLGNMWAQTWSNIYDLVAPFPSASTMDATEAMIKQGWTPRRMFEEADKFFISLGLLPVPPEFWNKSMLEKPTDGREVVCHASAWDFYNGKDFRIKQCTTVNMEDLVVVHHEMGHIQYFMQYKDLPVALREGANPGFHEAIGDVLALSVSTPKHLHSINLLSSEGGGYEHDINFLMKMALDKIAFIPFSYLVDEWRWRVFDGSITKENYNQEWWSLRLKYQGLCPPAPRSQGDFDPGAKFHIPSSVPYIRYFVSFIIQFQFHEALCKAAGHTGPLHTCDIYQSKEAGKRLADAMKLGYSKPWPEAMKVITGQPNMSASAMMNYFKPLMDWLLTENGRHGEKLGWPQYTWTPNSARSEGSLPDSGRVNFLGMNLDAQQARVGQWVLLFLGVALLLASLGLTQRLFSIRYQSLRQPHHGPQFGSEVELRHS
Description: Enzyme (500 nM) was incubated with AM-A (500 μM) for 10 minutes. 20 μL of the above was diluted with 180 μL nitrocefin or FAPGG substrate for the following final concentrations: Enzyme (50 nM), FAPGG (50 μM)/nitrocefin (20 μM), AM-A (50 μM). Buffer (50 mM HEPES pH 7.5, 300 mM NaCl) was stirred overnight with 2 g/100 mL Chelex-100 (Biorad; Richmond, Calif.). Assays were read in 96-well microplate format at 490 nm using a Spectramax reader (Molecular Devices) at 37° C.

ACE from rabbit lung = biological target: T2, ACE from rabbit lung (Oryctolagus cuniculus, UniProt P12822); experiment: IC50 enzyme inhibition assay, FAPGG reporter substrate; type: biochemical; conditions: concentration-response assays
T2 construct: as well as ACE from rabbit lung; from tissue; host or cells: rabbit lung
Description: (§1) Enzyme (NDM-1, 5 nM; VIM-2, 500 pM; CTX-M-15, 500 pM; KPC-2, 5 nM; OXA-48, 1 nM; TEM-1, 100 pM; ACE, 50 nM) was mixed with 30 μM nitrocefin (100 μM nitrocefin for TEM-1; 250 µM furanacryloyl-L-phenylalanylglycylglycine [FAPGG] for ACE^24) after a 5-10 minute preincubation with AM-A. Metallo-enzymes were supplemented with 10 μM ZnSO4. Assays were read in 96-well microplate format at 490 nm using a Spectramax reader (Molecular Devices) at 30-37° C.
E. coli strain BW25113 was modified by deletion of the bamB and tolC genes so as to increase permeability to and reduce efflux of small molecules. This strain was then further modified by the single-copy chromosomal insertion of the blaNDM-1 gene under control of the pLac promoter. Microbial natural product extracts were screened against this strain in the presence of sublethal ¼ MIC meropenem. AM-A was purified from a hit extract and its structure elucidated by NMR, mass spectrometry and polarimetry. IC50 values for AM-A were determined using nitrocefin (for MBLs and Ser BLs) and furanacryloyl-L-phenylalanylglycylglycine (for ACE)^21 as reporter substrates against the following purified enzymes: MBLs IMP-7, VIM-2, and NDM-1; SBLs CTX-M-15, KPC-2, OXA-48, and TEM-1; as well as ACE from rabbit lung. […] FIC values were determined using standard methods^27. […]

IMP-7 = experiment: IC50 enzyme inhibition assay, nitrocefin reporter substrate; type: biochemical
Description: as §1
(§2) E. coli strain BW25113 was modified by deletion of the bamB and tolC genes so as to increase permeability to and reduce efflux of small molecules. This strain was then further modified by the single-copy chromosomal insertion of the blaNDM-1 gene under control of the pLac promoter. Microbial natural product extracts were screened against this strain in the presence of sublethal ¼ MIC meropenem. AM-A was purified from a hit extract and its structure elucidated by NMR, mass spectrometry and polarimetry. IC50 values for AM-A were determined using nitrocefin (for MBLs and Ser BLs) and furanacryloyl-L-phenylalanylglycylglycine (for ACE)^21 as reporter substrates against the following purified enzymes: MBLs IMP-7, VIM-2, and NDM-1; SBLs CTX-M-15, KPC-2, OXA-48, and TEM-1; as well as ACE from rabbit lung. IC50, reversibility, Zn^2+ restoration, and inactivation enzyme assays were performed in 50 mM HEPES pH 7.5 and measured using a SpectraMax reader (Molecular Devices). ICP-MS experiments were conducted using purified NDM-1 at 5 mg/mL and varying concentrations of AM-A with subsequent dilution and transfer by nebulization into a NexION 3000 ICP mass spectrometer (Perkin Elmer). FIC values were determined using standard methods^27. Various concentrations of AM-A were tested in combination with 2 mg/L meropenem against 200+MBL-expressing clinical isolates including Pseudomonas spp., Acinetobacter spp., and Enterobacteriaceae. A dose of 2×10^6 forming units (cfu) of Klebsiella pneumoniae N11-2218 was used for all organ bacterial load experiments and a dose of 5×10^7cfu for all survival experiments. For all experiments, mice were treated with compound 30 minutes post infection.

CTX-M-15 = biological target: T3, CTX-M-15 (Escherichia coli, UniProt Q9EXV5); experiment: as above; type: biochemical
T3 construct: All β-lactamase overexpression constructs were generated without the leader peptide in a pET-28b plasmid containing a N-terminal His Tag; His tag (N); made in house; host or cells: E. coli BL21(DE3)
T3 sequence (Q9EXV5 entry or part of it): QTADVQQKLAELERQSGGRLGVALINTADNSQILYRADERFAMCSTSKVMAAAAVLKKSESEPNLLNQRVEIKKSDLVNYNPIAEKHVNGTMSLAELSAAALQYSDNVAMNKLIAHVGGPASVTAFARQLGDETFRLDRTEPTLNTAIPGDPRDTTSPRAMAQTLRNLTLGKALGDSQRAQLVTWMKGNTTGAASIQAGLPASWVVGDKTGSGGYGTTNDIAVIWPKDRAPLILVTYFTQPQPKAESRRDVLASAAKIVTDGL
Description: as §1, §2

VIM-2 = biological target: T4, VIM-2 (Escherichia coli, UniProt Q5U7L7); experiment: as above; type: biochemical
T4 construct: All β-lactamase overexpression constructs were generated without the leader peptide in a pET-28b plasmid containing a N-terminal His Tag; His tag (N); made in house; host or cells: E. coli BL21(DE3)
Description: as §1, §2

OXA-48 = biological target: T5, OXA-48 (Klebsiella pneumoniae, UniProt Q6XEC0); experiment: as above; type: biochemical
T5 construct: All β-lactamase overexpression constructs were generated without the leader peptide in a pET-28b plasmid containing a N-terminal His Tag; His tag (N); made in house; host or cells: E. coli BL21(DE3)
T5 sequence (Q6XEC0 23-265 limits assumed): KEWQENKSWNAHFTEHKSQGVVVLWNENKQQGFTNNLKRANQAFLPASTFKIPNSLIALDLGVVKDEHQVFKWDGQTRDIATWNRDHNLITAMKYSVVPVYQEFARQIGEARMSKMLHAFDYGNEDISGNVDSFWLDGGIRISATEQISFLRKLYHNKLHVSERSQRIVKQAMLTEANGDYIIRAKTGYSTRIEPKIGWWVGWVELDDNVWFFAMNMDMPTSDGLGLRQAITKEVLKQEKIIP
Description: as §1, §2

TEM-1 = biological target: T6, TEM-1 (Escherichia coli, UniProt P62593); experiment: as above; type: biochemical
T6 construct: All β-lactamase overexpression constructs were generated without the leader peptide in a pET-28b plasmid containing a N-terminal His Tag; His tag (N); made in house; host or cells: E. coli BL21(DE3)
T6 sequence (P62593 24-286 limits assumed): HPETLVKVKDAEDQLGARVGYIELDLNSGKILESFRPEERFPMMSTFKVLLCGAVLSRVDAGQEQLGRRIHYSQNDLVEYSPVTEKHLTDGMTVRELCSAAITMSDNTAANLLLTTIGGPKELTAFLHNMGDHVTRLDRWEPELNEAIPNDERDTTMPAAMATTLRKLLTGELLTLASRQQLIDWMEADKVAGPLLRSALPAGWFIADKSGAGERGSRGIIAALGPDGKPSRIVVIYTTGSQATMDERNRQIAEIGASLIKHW
Description: as §1, §2

[1] = rats, i.v.; cited from earlier work

For `N[C@H](CN[C@H](CN[C@@H](CC(=O)O)C(=O)O)C(=O)O)C(=O)O` [AM-A, aspergillomarasmine A], the inhibition at 500 µM (ACE) was about 50%, the “reduction of activity of rabbit lung ACE” value (ACE from rabbit lung) was about 35% and the “activity against IMP-7” value (IMP-7) was “weaker activity; also recorded: less potent inactivation”. The “effect on CTX-M-15” value (CTX-M-15) was “no effect”, the IC50 (VIM-2) was 9.6 ± 2.4 µM and the “in vitro inhibition of VIM-2” value (VIM-2) was “potent in vitro dose-dependent inhibition”. For the same molecule, the “effect on activity of OXA-48” value (OXA-48) was “no effect; also recorded: unaffected”, the “effect on TEM-1” value (TEM-1) was “no effect” and the LD50 [1] was 250 mg/kg.
